Reference: EPA's ToxValDB 9.5 (doi:10.2903/j.efsa.2016.4419)

Legend:
Rattus norvegicus = conditions: for LD50: acute, mortality
Apis mellifera = conditions: acute, mortality
Colinus virginianus = conditions: acute, oral, mortality
Daphnia pulex = conditions: chronic/long-term; duration: 21 days; reproduction
Folsomia candida = conditions: chronic/long-term; duration: 14 days; reproduction
Lepomis macrochirus = conditions: acute; duration: 96 hours; mortality
Mus musculus = conditions: reproduction developmental; organ weight
Oncorhynchus mykiss = conditions: acute; duration: 96 hours; mortality
Pimephales promelas = conditions: chronic/long-term; duration: 36 days; clinical signs

Structure (SMILES)	LD50 (Rattus norvegicus) [mg/kg]	NOEL (Anas platyrhynchos; reproductive) [mg/kg-day]	LC50 (Anas platyrhynchos; short-term, oral, feed, mortality) [mg/kg]	LD50 (Apis mellifera; dermal) [µg/piece]	LD50 (Apis mellifera; oral, unspecified) [µg/piece]	LC50 (Colinus virginianus; diet) [mg/kg]	LD50 (Colinus virginianus) [mg/kg]	NOEC (Daphnia pulex) [mg/L]	NOEC (Folsomia candida) [mg/kg]	LC50 (Lepomis macrochirus) [mg/L]	NOAEL (Mus musculus) [mg/kg-day]	LC50 (Oncorhynchus mykiss) [mg/L]	NOEC (Pimephales promelas) [mg/L]	LD50 (Rattus norvegicus; oral) [mg/kg]	NOEL (Rattus norvegicus; reproduction developmental, organ weight) [mg/kg-day]	LC50 (Tagia sp.; acute, mortality) [mg/kg]	NOEC (Tagia sp.; chronic/long-term, reproduction) [mg/kg]
CS(=O)(=O)c1ccc(C(=O)O)c(N)c1 [2-Amino-4-(methylsulfonyl)benzoic acid]	> 5000	–	–	–	–	–	–	–	–	–	–	–	–	–	–	–	–
CS(=O)(=O)c1ccc(C(=O)C2C(=O)CCCC2=O)c([N+](=O)[O-])c1 [Mesotrione]	–	20.6	> 5200	52.5	> 11	> 5200	> 2000	180	50.5	> 120	2	> 120	12.5	> 5000	0.3	> 2000	10.8
